Laboratory results published in publication PMC3676400, “3-Oxoacyl-ACP Reductase from Schistosoma japonicum: Integrated In Silico-In Vitro Strategy for Discovering Antischistosomal Lead Compounds” (PLoS ONE, 2013).
Where two headings read alike, the source gives them in different places.

Key:
M. tuberculosis OAR = conditions: cited from earlier work
P. falciparum OAR = conditions: cited from earlier work
Escherichia coli OAR = conditions: E. coli, ref [32], cited from earlier work
adult worms [1] = test: Inhibition studies on cultured adult worms
rSjOAR [2] = molecular target: T1, rSjOAR (Schistosoma japonicum, UniProt Q5DB51); test: BIAcore assay of binding to immobilized rSjOAR
Protocol: The binding capacities of small compounds identified by the virtual screen with rSjOAR were assessed using a BIAcore 3000 instrument (BIAcore AB, Uppsala, Sweden). The recombinant His-tag fusion protein SjOAR was immobilized onto an NTA chip. Compounds were injected at a concentration of 10 µM and a flow rate of 40 µl/min in HBS buffer (0.01 M HEPES, 0.15 M NaCl, 3.0 mM EDTA, 0.005% Tween 20, pH 7.4) containing 1‰ DMSO (Dimethyl sulfoxide). Electrical alterations on the sensor chip were monitored as a resonance signal by using the program supplied by the manufacturer. To further obtain kinetic parameters, a series of compound concentrations (0.5 µM, 1 µM, 2 µM, 5 µM and 10 µM) were measured. Data were analyzed by using the software with which the instrument was equipped.

adult worms [3] = test system: adult worms; design: method as in PMID 19851783; conditions: after the drug is removed; ref [30]; cited from earlier work
rSjOAR [4] = molecular target: T1, rSjOAR; test: Effect of active compounds on rSjOAR enzymatic activity; format: biochemical
Protocol: The Median inhibitory concentration (IC50) was calculated by curve fitting using SPSS18.0 statistical software with a confidence interval of 95%. All assays were carried out in triplicate and repeated three times.

[5] = substrate: CC(=O)CC(=O)SCCNC(=O)CCNC(=O)[C@H](O)C(C)(C)COP(=O)(O)OP(=O)(O)OC[C@H]1O[C@@H](n2cnc3c(N)ncnc32)[C@H](O)[C@@H]1OP(=O)(O)O; test: rSjOAR kinetic analysis (Michaelis constants of substrates); format: biochemical; conditions: other: S. japonicum; pH 6.8; 37.0 °C
Protocol: The linear rates obtained over the first 0–2 min were analyzed by the non-linear regression function in OriginPro software. To investigate the enzyme mechanism, a matrix of kinetic data was taken where one substrate was varied at four fixed concentrations of the other substrate. Individual data sets were analyzed using the Michaelis-Menten equation (eq 1) in order to establish whether the double-reciprocal plots were parallel or convergent. The data for intersecting initial velocity patterns were fitted to eq2, describing a steady-state sequential mechanism.

Molecule: NADPH
- Km (M. tuberculosis OAR; read-out: Km(app)NADPH): 26 ± 3 µM
- Km (P. falciparum OAR; read-out: Km(app)NADPH, ref [12], [22]): 47.5 ± 4.5 µM
- Km (Escherichia coli OAR; read-out: Km(app)NADPH): 21 µM

Molecule: O=C(NC1CCN(CCc2c[nH]c3ccccc23)CC1)c1ccccc1 [OAR8]
- mortality (adult worms [1]; primary screening, 50 µg/ml, after 48 h): 100%
- Rmax (maximum binding capacity) (rSjOAR [2]; BIAcore): 57.4
- KA (association constant) (rSjOAR [2]; BIAcore, five concentrations 0.5-10 µM): 82900 M⁻¹
- Kd (rSjOAR [2]; BIAcore, five concentrations 0.5-10 µM, read-out: KD (dissociation constant)): 12.1 µM

Molecule: O=C(C1CCCCC1)N1CC(=O)N2CCc3ccccc3C2C1 (stereo not shown) [PZQ, praziquantel]
- reversibility of effect against schistosomes (adult worms [3]): reversible
- morphological changes, optical microscopy (adult worms [1]; PZQ 10 µg/ml, 24 h (Figure 5E)): drastic contractions
- mortality at 1.6 µg/mL (adult worms [1]; Schistosoma japonicum, 72 h): 83.3%
- BIAcore response signal (rSjOAR [2]; compound 10 µM): only a small signal
- effect on rSjOAR enzymatic activity (rSjOAR [4]): no significant inhibition

Molecule: CC(=O)CC(=O)SCCNC(=O)CCNC(=O)[C@H](O)C(C)(C)COP(=O)(O)OP(=O)(O)OC[C@H]1O[C@@H](n2cnc3c(N)ncnc32)[C@H](O)[C@@H]1OP(=O)(O)O [AcAcCoA, Acetoacetyl-CoA]
- Km (M. tuberculosis OAR; read-out: Km(app)AcAcCoA, M. tuberculosis, ref [17], [20]): 170 ± 20 µM
- Km (P. falciparum OAR; read-out: Km(app)AcAcCoA, ref [12], [22]): 510 ± 50 µM
- Km (Escherichia coli OAR; read-out: Km(app)AcAcCoA): 2500 µM

B1: rSjOAR (Schistosoma japonicum) (protein)
chain: MISLSKKVAIVTGASSGIGRATAILFAKLGACVALVARDKSRLQETRQACIQVSHPDVYEKHKEPFLCIEADLGDSHEVEKAYRLALNHFHQLDILVNNAGFMIQDTVETFNIDEYERLMKLNLTAAITLTNLAVPDLTTTKGSIVNVSSVCGERSFPGVMSYCISKAALDQFTKCTALDLASKGIRVNSVNPAVIVTELHKRAGMSEDDYKKFLLKSKESHALGRTGTVEEVAQAIAFLSSSASSFTTGNLLMVDGGRSIMCPR
- Km [5]: 550 ± 30 µM
